# In US20100292214A1, “Compounds with Antiparasitic Activity, Applications thereof to the Treatment of Infectious Diseases Caused by Apicomplexans” (commissariat a l'Energie Atomique, priority 2007, published 2010):
# Structures can show the parent of a compound that is named as a salt.
# Tested on: asynchronous 3D7 chloroquine-sensitive P. falciparum infected red blood cells
# Test: Labeled hypoxanthine incorporation assay (in vitro anti-malarial activity)
# Type: cell-based
# Conditions: 3D7 chloroquine-sensitive strain, infected RBC, 48 h contact, [3H]-hypoxanthine incorporation; two independent experiments in duplicates; read-out: IC50 assessed on Plasmodium Falciparum
row,SMILES,IC50 [µM]
1,"C[C@@H](COC(=O)N1CCC(n2c(=O)[nH]c3ccccc32)CC1)N(Cc1ccccc1)Cc1ccc(Br)cc1 [Compound 116, S)-2-(benzyl(4-bromobenzyl)amino)propyl 4-(2-oxo-2,3-dihydro-1H-benzo[d]imidazol-1-yl)piperidine-1-carboxylate hydrochloride]",2.88

# Same assay, conditions: Plasmodium falciparum, 3D7, Erythrocyte, 3D7 chloroquine-sensitive strain, infected RBC, 48 h contact, [3H]-hypoxanthine incorporation; two independent experiments in duplicates; read-out: IC50 assessed on Plasmodium Falciparum
row,IC50 [µM],SMILES
1,3.15,"O=C(OCCN(Cc1ccccc1)Cc1ccc(OCc2ccccc2)cc1)N1CCC(n2c(=O)[nH]c3ccccc32)CC1 [Compound 100, 2-(benzyl(4-(benzyloxy)benzyl)amino)ethyl 4-(2-oxo-2,3-dihydro-1H-benzo[d]imidazol-1-yl)piperidine-1-carboxylate]"
2,2.65,"CSc1ccccc1NC1CCN(C(=O)OC[C@H](Cc2ccccc2)N(Cc2ccccc2)Cc2ccccc2)CC1 [Compound 176, (S)-2-(dibenzylamino)-3-phenylpropyl 4-(2-(methylthio)phenylamino)piperidine-1-carboxylate]"
3,3.87,"O=C(OCCN(Cc1ccccc1)Cc1cccc2ccccc12)N1CCC(n2c(=O)[nH]c3ccccc32)CC1 [Compound 130, 2-(benzyl(naphthalen-1-ylmethyl)amino)ethyl 4-(2-oxo-2,3-dihydro-1H-benzo[d]imidazol-1-yl)piperidine-1-carboxylate hydrochloride]"
4,2.28,"CC(C)(COC(=O)N1CCC(n2c(=O)[nH]c3ccccc32)CC1)N(Cc1ccccc1)Cc1ccccc1 [Compound 111, 2-(dibenzylamino)-2-methylpropyl 4-(1,2-dihydro-2-oxobenzo[d]imidazol-3-yl)piperidine-1-carboxylate]"
5,4.61,"O=C(OCCCN(CCCc1ccccc1)Cc1ccccc1)N1CCC(n2c(=O)[nH]c3ccccc32)CC1 [Compound 148, 3-(benzyl(3-phenylpropyl)amino)propyl 4-(2-oxo-2,3-dihydro-1H-benzo[d]imidazol-1-yl)piperidine-1-carboxylate hydrochloride]"
6,2.81,"CC(C)[C@@H](COC(=O)N1CCC(n2c(=O)[nH]c3ccccc32)CC1)N(Cc1ccccc1)Cc1ccccc1 [Compound 107, (S)-2-(dibenzylamino)-3-methylbutyl 4-(1,2-dihydro-2-oxobenzo[d]imidazol-3-yl)piperidine-1-carboxylate]"
7,0.0287,"C[C@@H]1CC[C@H]2[C@@H](C)C(=O)O[C@@H]3O[C@@]4(C)CC[C@@H]1[C@]32OO4 [Artemisinine, reference compound]"
8,2.58,"C[C@@H](COC(=O)N1CCC(Nc2ccccc2Sc2ccc(Cl)cc2)CC1)N(Cc1ccccc1)Cc1ccccc1 [Compound 173, (S)-2-(dibenzylamino)propyl 4-(2-(4-chlorophenylthio)phenylamino)piperidine-1-carboxylate]"
9,3.57,"O=C(OCCN(Cc1ccccc1)Cc1cccc(OCc2ccccc2)c1)N1CCC(n2c(=O)[nH]c3ccccc32)CC1 [Compound 103, 2-(benzyl(3-(benzyloxy)benzyl)amino)ethyl 4-(2-oxo-2,3-dihydro-1H-benzo[d]imidazol-1-yl)piperidine-1-carboxylate]"
10,2.67,"C[C@@H](COC(=O)N1CCC(n2c(=O)[nH]c3ccccc32)CC1)N(Cc1ccccc1)Cc1cccc(Oc2ccccc2)c1 [Compound 127, (S)-2-(benzyl(3-phenoxybenzyl)amino)propyl 4-(2-oxo-2,3-dihydro-1H-benzo[d]imidazol-1-yl)piperidine-1-carboxylate hydrochloride]"
11,0.913,"Cc1cccc(C)c1NC1CCN(C(=O)OC[C@H](Cc2ccccc2)N(Cc2ccccc2)Cc2ccccc2)CC1 [Compound 174, (S)-2-(dibenzylamino)-3-phenylpropyl 4-(2,6-dimethylphenylamino)piperidine-1-carboxylate]"
12,4.66,"COc1ccccc1CN(CCOC(=O)N1CCC(n2c(=O)[nH]c3ccccc32)CC1)Cc1ccccc1 [Compound 151, 2-(benzyl(2-methoxybenzyl)amino)ethyl 4-(2-oxo-2,3-dihydro-1H-benzo[d]imidazol-1-yl)piperidine-1-carboxylate]"
13,3.31,"O=C(OCCN(Cc1ccccc1)Cc1cccc(Cl)c1)N1CCC(n2c(=O)[nH]c3ccccc32)CC1 [Compound 124, 2-(benzyl(3-chlorobenzyl)amino)ethyl 4-(2-oxo-2,3-dihydro-1H-benzo[d]imidazol-1-yl)piperidine-1-carboxylate hydrochloride]"
14,0.78,"C[C@@H](COC(=O)N1CCC(n2c(=O)n(S(=O)(=O)c3cccc4cccnc34)c3ccccc32)CC1)N(Cc1ccccc1)Cc1ccccc1 [Compound 60, (S)-2-(dibenzylamino)propyl 4-(2-oxo-3-(quinolin-8-ylsulfonyl)-2,3-dihydro-1H-benzo[d]imidazol-1-yl)piperidine-1-carboxylate]"
15,0.828,"COc1ccc(S(=O)(=O)N(c2ccccc2)C2CCN(C(=O)OC[C@H](Cc3ccccc3)N(Cc3ccccc3)Cc3ccccc3)CC2)cc1 [Compound 157, (S)-2-(dibenzylamino)-3-phenylpropyl 4-(N-phenyl-4-methoxyphenylsulfonamido)piperidine-1-carboxylate]"
16,0.355,"C[C@@H](COC(=O)N1CCC(N(c2ccccc2)S(=O)(=O)c2ccc(C(F)(F)F)cc2)CC1)N(Cc1ccccc1)Cc1ccccc1 [Compound 158, (S)-2-(dibenzylamino)propyl 4-(N-phenyl-4-(trifluoromethyl)phenylsulfonamido)piperidine-1-carboxylate]"
17,1.59,"CCCc1ccc(S(=O)(=O)N(c2ccccc2)C2CCN(C(=O)OC[C@H](C)N(Cc3ccccc3)Cc3ccccc3)CC2)cc1 [Compound 154, (S)-2-(dibenzylamino)propyl 4-(N-phenyl-4-propylphenylsulfonamido)piperidine-1-carboxylate]"
18,2.6,"CCc1cccc(CC)c1NC1CCN(C(=O)OC[C@H](Cc2ccccc2)N(Cc2ccccc2)Cc2ccccc2)CC1 [Compound 175, (S)-2-(dibenzylamino)-3-phenylpropyl 4-(2,6-diethylphenylamino)piperidine-1-carboxylate]"
19,2.2,"C[C@@H](COC(=O)N1CCC(N(c2ccccc2)S(=O)(=O)c2ccc(-c3ccccc3)cc2)CC1)N(Cc1ccccc1)Cc1ccccc1 [Compound 170, (S)-2-(dibenzylamino)propyl 4-(N-phenyl-biphenyl-4-sulfonamido)piperidine-1-carboxylate]"
20,1.29,"O=C(OCCCN(Cc1ccccc1)Cc1cccnc1)N1CCC(n2c(=O)[nH]c3ccccc32)CC1 [Compound 134, 3-(benzyl(pyridin-3-ylmethyl)amino)propyl 4-(2-oxo-2,3-dihydro-1H-benzo[d]imidazol-1-yl)piperidine-1-carboxylate hydrochloride]"
21,3.63,"C[C@@H](COC(=O)N1CCC(n2c(=O)[nH]c3ccccc32)CC1)N(Cc1ccccc1)Cc1ccc(Cl)cc1 [Compound 129, (S)-2-(benzyl(4-chlorobenzyl)amino)propyl 4-(2-oxo-2,3-dihydro-1H-benzo[d]imidazol-1-yl)piperidine-1-carboxylate hydrochloride]"
22,4.97,"O=C(OCCN(C/C=C/c1ccccc1)Cc1ccccc1)N1CCC(n2c(=O)[nH]c3ccccc32)CC1 [Compound 104, (E)-2-(benzyl(cinnamyl)amino)ethyl 4-(2-oxo-2,3-dihydro-1H-benzo[d]imidazol-1-yl)piperidine-1-carboxylate]"
23,1.33,"O=C(OC[C@H](Cc1ccccc1)N(Cc1ccccc1)Cc1ccccc1)N1CCC(N(c2ccccc2)S(=O)(=O)c2cccc3ccccc23)CC1 [Compound 162, (S)-2-(dibenzylamino)-3-phenylpropyl 4-(N-phenyl-naphthalen-1-ylsulfonamido)piperidine-1-carboxylate]"
24,0.29,"C[C@@H](COC(=O)N1CCC(N(c2ccccc2)S(=O)(=O)c2cccc3ccccc23)CC1)N(Cc1ccccc1)Cc1ccccc1 [Compound 161, (S)-2-(dibenzylamino)propyl 4-(N-phenyl-naphthalen-1-ylsulfonamido)piperidine-1-carboxylate]"
25,4.27,"O=C(OCCCN(CCOCc1ccccc1)Cc1ccccc1)N1CCC(n2c(=O)[nH]c3ccccc32)CC1 [Compound 143, 3-(benzyl(2-(benzyloxy)ethyl)amino)propyl 4-(2-oxo-2,3-dihydro-1H-benzo[d]imidazol-1-yl)piperidine-1-carboxylate hydrochloride]"
26,2.4,"CC(C)(C)C(COC(=O)N1CCC(n2c(=O)[nH]c3ccccc32)CC1)N(Cc1ccccc1)Cc1ccccc1 (centres unmarked) [Compound 109, 2-(dibenzylamino)-3,3-dimethylbutyl 4-(1,2-dihydro-2-oxobenzo[d]imidazol-3-yl)piperidine-1-carboxylate]"
27,5.37,"O=C(OCCN(Cc1ccccc1)Cc1c(F)cccc1F)N1CCC(n2c(=O)[nH]c3ccccc32)CC1 [Compound 101, 2-(benzyl(2,6-difluorobenzyl)amino)ethyl 4-(2-oxo-2,3-dihydro-1H-benzo[d]imidazol-1-yl)piperidine-1-carboxylate]"
28,1.26,"C[C@@H](COC(=O)N1CCC(Nc2ccccc2S(=O)(=O)c2ccccc2)CC1)N(Cc1ccccc1)Cc1ccccc1 [Compound 164, (S)-2-(dibenzylamino)propyl 4-(2-(phenylsulfonyl)phenylamino)piperidine-1-carboxylate]"

row,SMILES,IC50 [µM]
1,"CC(C)(C)OC(=O)N(Cc1ccccc1)[C@H](COC(=O)N1CCC(n2c(=O)[nH]c3ccccc32)CC1)Cc1ccccc1 [Compound 106, (S)-2-(benzyl(tert-butoxycarbonyl)amino)-3-phenylpropyl 4-(2-oxo-2,3-dihydro-1H-benzo[d]imidazol-1-yl)piperidine-1-carboxylate]",0.828

# Same assay, conditions: Plasmodium falciparum, 3D7, Erythrocyte, read-out: IC50 assessed on Plasmodium Falciparum
row,SMILES,IC50 [µM]
1,"C[C@H]1[C@H](OC(=O)CCC(=O)O)O[C@@H]2O[C@@]3(C)CC[C@H]4[C@H](C)CC[C@@H]1[C@@]24OO3 [Artesunate, reference compound]",0.0097
2,"CCN(CC)CCCC(C)Nc1ccnc2cc(Cl)ccc12 (centres unmarked) [Chloroquine, reference compound]",0.0103
